{"source": "patent US12285407B2", "about": "“Bis-indolylmethane derivatives and uses thereof” (The University of The West Indies, priority 2018, dated 2025)", "key": {"[1]": {"tested_on": "Bacillus cereus ATCC 14579", "test": "Broth microdilution MIC of SP-BIMs", "type": "cell-based", "details": "ATCC14579, SP-BIM alone, read-out: MIC Bacillus cereus ATCC 14579"}, "[2]": {"tested_on": "Streptococcus pyogenes ATCC 19615", "test": "Broth microdilution MIC of SP-BIMs", "type": "cell-based", "details": "ATCC19615, SP-BIM alone, read-out: MIC Streptococcus pyogenes ATCC 19615"}, "MRSA HS 10132": {"tested_on": "MRSA HS 10132", "test": "Systemic non-lethal MRSA infection in mice (organ MRSA load)", "type": "in vivo"}, "[3]": {"tested_on": "Salmonella typhimurium ATCC 14028", "test": "Broth microdilution MIC of SP-BIMs", "type": "cell-based", "details": "Salmonella enterica, read-out: MIC Salmonella tvpkimurium ATCC 14028", "procedure,_shortened": "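S. typhimurium at ~10^6 CFU mL^−1 in cation-adjusted Mueller Hinton broth was exposed to twofold compound dilutions from 250 to 0.02 μg mL^−1 at 35° C. for 18 hours. Resazurin was then added, with 1 hour of shaking. MIC was the lowest concentration showing no blue-to-pink colour change.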"}, "[4]": {"tested_on": "clinical antibiotic resistant isolates of MRSA", "test": "Checkerboard resistance breaking by SP-BIM 13", "type": "cell-based, Staphylococcus aureus", "details": "clinical MRSA strains; in most cases"}, "Gram-negative bacteria": {"tested_on": "Gram-negative bacteria", "test": "Adjuvant broth microdilution", "type": "cell-based", "details": "SP-BIM at 50 μg mL^−1", "experimental": "To each well, the SP-BIM to be tested was added to a final concentration of 50 μg mL^−1. […] SP-BIMs were assessed as potential adjuvants based on their ability to reduce the MIC of the antibiotic against respective pathogen."}, "[5]": {"tested_on": "Candida albicans ATCC 22972", "test": "Broth microdilution MIC of SP-BIMs", "type": "cell-based", "details": "ATCC22972, SP-BIM alone, read-out: MIC Candida albicans ATCC 22972"}, "[6]": {"tested_on": "sarA, agrA, RNA III, mecA, blaZ and fnbA genes", "test": "Real time gene expression analysis in MRSA cells", "details": "MRSA cells exposed to SP-BIM 13 only, or SP-BIM 13 in combination with ampicillin; 5 and 10 μg mL^−1"}, "[7]": {"tested_on": "Klebsiella pneumoniae ATCC 49472", "test": "Broth microdilution MIC of SP-BIMs", "type": "cell-based", "details": "ATCC49472, SP-BIM alone, read-out: MIC Klebisella pneumoniae ATCC 49472"}}}
{"smiles": "Oc1cc(C(c2c[nH]c3ccccc23)c2c[nH]c3ccccc23)cc(O)c1O", "note": "[SP-BIM 13, 5-(di(1H-indol-3-yl)methyl)benzene-1,2,3-triol]", "values": [{"measurement": "MIC", "setting": "[1]", "result": 125, "unit": "µg/mL"}, {"measurement": "MIC", "setting": "[2]", "result": 125, "unit": "µg/mL"}, {"measurement": "MRSA load in the spleen", "setting": "MRSA HS 10132; SP-BIM 13 only, both levels", "result": "did not significantly reduce"}, {"measurement": "MRSA counts in liver", "setting": "MRSA HS 10132; ampicillin ([…] mg kg^−1)+5 mg kg^−1 SP-BIM 13", "result": 7900, "unit": "CFU mL^−1"}, {"measurement": "MRSA counts in liver", "setting": "MRSA HS 10132; ampicillin ([…] mg kg^−1)+10 mg kg^−1 SP-BIM 13", "result": 900, "unit": "CFU mL^−1"}, {"measurement": "MRSA counts in liver", "setting": "MRSA HS 10132; ampicillin ([…] mg kg^−1)+25 mg kg^−1 SP-BIM 13", "result": 63, "unit": "CFU mL^−1"}, {"measurement": "MRSA load in the spleen", "setting": "MRSA HS 10132; ampicillin and SP-BIM 13 at 10 and 25 mg kg^−1, vs no treatment, ampicillin only, ampicillin+5 mg kg^−1", "result": "significantly lower"}, {"measurement": "MIC", "setting": "[3]", "result": 250, "unit": "µg/mL"}, {"measurement": "reduction of ampicillin MICs by SP-BIM 13", "setting": "[4]", "result": 100, "unit": "fold"}, {"measurement": "potentiating activity for Gram-negative bacteria", "setting": "Gram-negative bacteria", "result": "No potentiating activity was observed"}, {"measurement": "MIC", "setting": "[5]", "result": 250, "unit": "µg/mL"}, {"measurement": "expression of both the downstream and regulator genes", "setting": "[6]", "result": "significantly reduced"}, {"measurement": "MIC", "setting": "[7]", "result": "> 250", "unit": "µg/mL"}]}
